Article PMC11503492, “Activity-Based DNA-Encoded Library Screening for Selective Inhibitors of Eukaryotic Translation” (ACS Central Science, 2024)

Key:
[1] = test system: PCSK9[1:33]-GFP translation; test: Microfluidic activity-based DEL screen in WG IVTT droplets, PCSK9[1:33]-GFP, hit k class by sequencing; format: biochemical, wheat germ; settings: number of times hit structure observed on distinct beads, summed across PCSK9[1:33]-GFP screens; *** p < 0.001, NS not significant
Method: The validated PF846-inspired library was screened to discover novel translation inhibitors. DEL beads were encapsulated in microfluidic droplets of WG IVTT and irradiated with UV in flow to liberate DEL members into the droplets. The photodosed droplets were incubated and sorted based on fluorescence.[25] PCSK9[1:33]-GFP was chosen as a proof-of-concept target, and PCSK9-FS[1:33]-GFP was used as a counter screen target to identify nonselective compounds. PC-HygB were mixed with DEL beads and screened in the microfluidic device for inhibitors of translation. […] Droplet generation, bead introduction, and library and control bead hit rate were uniform during the screen (Figure 3, bottom).
Hit collection DNA tags from the PCSK9[1:33]-GFP and PCSK9-FS[1:33]-GFP screens were sequenced to deduce the structures of molecules that inhibited PCSK9[1:33]- or PCSK9-FS[1:33]-GFP translation. Hit structure k class, the number of times a given hit structure is observed on distinct beads,[31] was summed across screens and visualized as a heat map (Figure 4A). […] The combined hit sets for the two templates contained 121 unique hits with k ≥ 17 across the two screening campaigns. The most frequently observed cycle 1 starter BBs were 1 and 2, which share an 8-methylisoquinoline moiety, but differ in the vector for cycle 2 carboxylic acid connection, and 3, which contains an N-methylazaindole moiety. The most frequently identified cycle 2 tails included carboxylic acids 4–7. […] Substituted pyrazole 6 and pyridyl-benzimidazole 7 also appeared frequently with the aforementioned starters. There were 5 hits that appeared with high k class in both PCSK9[1:33]-GFP and PCSK9[1:33]-FS-GFP screening campaigns.
319 the droplet experiment to homogenize the bead suspension. Syringes were connected to
320 fluidic inputs with microbore Tygon tubing (0.01” x 0.03” IC × OD). Droplet generation oil
321 (OIL1) was 1% picosurf in HFE. Spacing (OIL2) and pinning (OIL3) oils were neat HFE.
322 Assay reagents were driven by displacement syringe pumps (Legato 100, KD Scientific,
323 Holliston, MA) through the circuit. OIL2 and OIL3 were initially flowed (22 µL/min and
324 12 µL/min, respectively) and hit and waste shunt tubing were clamped to backfill the
325 circuit. Once the incubator was filled with oil, the hit and waste tubing were unclamped
326 and back shunts were clamped. AQ1, AQ2, and OIL1 flows were initiated (960 nL/min,
327 640 nL/min, and 1200 nL/min, respectively) and held constant during the screen. Once
328 droplet generation equilibrated (∼10 min), the main shunt was clamped and droplets
329 started to fill the incubator. When droplets filled the incubator and entered the sorting
330 region, data acquisition and screening was initiated.
331 The custom confocal LIF detection setup and LabView code were previously described.S3
332 Briefly, photon counting PMTs (H7828, Hamamatsu, Middlesex, NJ) were used to detect
333 droplet fluorescence emission using a custom two-channel (520 and 570 nm) confocal mi-
334 croscope with laser excitation (488 nm, 20 mW, OBIS-488 20LS, Coherent Inc., Santa Clara,
335 CA). A data acquisition board (DAQ, NI, USB-6341, National Instruments) was used to
336 digitize PMT signal, which was binned into counts, and in-house LabView code was used
337 to control acquisition and execute droplet sorting decisions. Signal was smoothed in real-
338 time using median-filter smoothing (width = 3). Droplets were identified by the 570 nm
339 channel signal and the maximum signal in the 520 nm channel (max = countsn-1 when
340 countsn <countsn-1) was set as the droplet peak value. A roaming sort threshold was
342 the 520 nm channel. The threshold was calculated as µ - 5σ, where µ andσ were the mean
343 and standard deviation of the previous 300 droplets’ fluorescence values, respectively. Hit
344 droplets were not included in the calculation of droplet mean and standard deviation. A […]

[2] = test system: PCSK9[1:33]-GFP translation; test: Wheat germ lysate (WG) IVTT microplate activity assay, PCSK9[1:33]-GFP template; format: biochemical; settings: for inhibition of PCSK9[1:33]-GFP translation (in words) / IC50: WG IVTT; for IC50: PCSK9[1:33]-GFP template, triplicate, ± standard deviation of the mean
Text: (§1) A commercially available wheat germ lysate (WG) IVTT system was employed to assay translation inhibition. Translation activity was detected via a GFP reporter, and the assay was miniaturized to picoliter-scale microfluidic droplets (Figure 1A,B). […] PCSK9 and RPL27 were truncated to the first 33 and 32 amino acids, respectively (PCSK9[1:33] and RPL27[1:32]). The sequences contain distinct PF846 stall sites and were both fused to a GFP reporter. The GFP reporter and a frameshift mutant of PCSK9[1:33] (PCSK9-FS[1:33]), which mutates the nascent chain sequence while maintaining a nearly identical mRNA sequence, were included as negative controls.[13] […] Sequence sensitivity was further confirmed by an N-terminal deletion series of PCSK9[1:33]-GFP; deletion of N-terminal residues increasingly ablated PCSK9[1:33]-GFP translation sensitivity to PF846 (Figure 1D). The WG IVTT assay was miniaturized using a previously described microfluidic circuit modified for longer incubation times (Figure S1)[27] using PF846 as a positive control compound, and assay statistical quality was calculated (Z′=0.7) (Figure 1E). To confirm detection of translation inhibition from library beads, hygromycin B, a nonselective aminoglycoside translation inhibitor, was coupled to beads displaying a photocleavable linker (PC-HygB). UV irradiation releases hygromycin from the bead, allowing it to interact with the WG IVTT assay in the droplet. PC-HygB bead photocleavage supernatant inhibited PCSK9[1:33]-GFP translation both in a microplate assay and in microfluidic droplets (Figure 1F,G, S2). Assay statistical quality using PC-HygB positive control beads was similarly calculated (Z′ = 0.75, Figure 1H). […]
(§2) 436 Microplate IVTT Assays
(§3) 437 Wheat germ lysate IVTT plate assays were prepared as 5 µL reactions. Wheat germ lysate
(§4) 438 (3 µL) was added to test compound or vehicle control (1 µL) in a 384-well black microplate
(§5) 439 and the reaction was incubated (10 min, RT). Template (1 µL) was added and reaction
(§6) 440 progress was immediately monitored (λex = 480 nm, λem = 530 nm, 27 °C, 2 h). Rela-
(§7) 441 tive activity was calculated using the slope of fluorescence increase over time (at 15–30
(§8) 442 min post reaction initiation) for compound samples relative to that of the DMSO vehicle
443 control. […]

[3] = test system: PCSK9-FS[1:33]-GFP translation; test: WG IVTT microplate activity assay, PCSK9-FS[1:33]-GFP frameshift counter template; format: biochemical, wheat germ; settings: for IC50: PCSK9-FS[1:33]-GFP template, triplicate, undetectable IC50 marked >300; for activity on PCSK9-FS[1:33]-GFP translation (in words): frameshift control
Text: as §1, §2, §3, §4, §5, §6, §7, §8
443 control. All microplate experiments contained 25 ng/µL plasmid, except for assays with
445 respectively. HeLa lysate IVTT plate assays were prepared as 5.5 µL reactions. […]

SMILES	k class PCSK9 [1]	inhibition of PCSK9[1:33]-GFP translation (in words) [2]	IC50 [2]	IC50 [3]	activity on PCSK9-FS[1:33]-GFP translation (in words) [3]	inhibition of translation of all reporters (in words) ([2]; all IVTT reporters tested)
Cc1cccc2ccnc(N(C(=O)[C@H]3CCCN(C(=O)c4cccc5c(C#N)c[nH]c45)C3)[C@@H]3CCCNC3)c12 [Compound 8]	47	moderately inhibited	1.3 ± 0.2 µM	> 300 µM	inactive	
Cc1cccc2ccnc(N(C(=O)C3CCN(C(=O)c4cccc5c(C#N)c[nH]c45)CC3)[C@@H]3CCCNC3)c12 [Compound 9]	28	similarly active on both templates	19.6 ± 0.2 µM	24 ± 0.4 µM	similarly active on both templates	universally and completely inhibited
